*1 amine or outer side, *2 acyl side, *3 side chain or, on linkers, in order; H or OH if unused. Where a SMILES comes first, the peptide text is derived from it. Bridges are numbered along the chain shown (N, C = ends). [ ]: non-standard residue; d: D form. The star is where a group is joined. hPhe(3-Cl-4-CF3) = N[C@@H](CCc1ccc(C(F)(F)F)c(Cl)c1)C(=O)O; X32 = COCCN([C@@H](Cc1ccc(C(F)(F)F)cc1)C(=O)[*:2])[*:1]; X29 = Cc1ccc(C[C@@H](C(=O)[*:2])N(CC2CCCC2)[*:1])cc1; X4 = CCCN([C@@H](COCCC(C)C)C(=O)[*:2])[*:1]; NMeGly(cPent) = CN[C@H](C(=O)O)C1CCCC1; NMeD = CN[C@@H](CC(=O)O)C(=O)O; NMeL = CN[C@@H](CC(C)C)C(=O)O; Morpholide = C1CN(*)CCO1; NMeA = CN[C@@H](C)C(=O)O; Ac5c = NC1(C(=O)O)CCCC1; Aze = O=C(O)[C@@H]1CCN1; Ac4c = NC1(C(=O)O)CCC1; Sar = CNCC(=O)O
How the values were obtained:
[1] = target: GDP-bound HRAS wild-type protein (Homo sapiens, UniProt P01112); assay: Binding to HRAS by surface plasmon resonance (SPR), Single Cycle Kinetics; conditions: for HRAS/KRAS (ratio of KD value with respect to GDP-bound HRAS wild-type protein to KD value with respect to KRAS): class symbols
[2] = target: GDP-bound NRAS wild-type protein (Homo sapiens, UniProt P01111); assay: Binding to NRAS by surface plasmon resonance (SPR), Single Cycle Kinetics; conditions: for NRAS/KRAS (ratio of KD value with respect to GDP-bound NRAS wild-type protein to KD value with respect to KRAS): class symbols
[3] = GDP-bound HRAS wild-type vs GDP-bound KRAS wild-type, SPR
[4] = GDP-bound NRAS wild-type vs GDP-bound KRAS wild-type, SPR

Sequence of GDP-bound HRAS wild-type protein (P01112 whole entry): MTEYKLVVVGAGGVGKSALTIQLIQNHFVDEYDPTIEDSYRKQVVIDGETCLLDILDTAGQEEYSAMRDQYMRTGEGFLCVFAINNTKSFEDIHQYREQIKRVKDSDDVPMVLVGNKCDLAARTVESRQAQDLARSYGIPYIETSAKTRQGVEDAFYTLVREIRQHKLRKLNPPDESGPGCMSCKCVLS
Sequence of GDP-bound NRAS wild-type protein (P01111 whole entry): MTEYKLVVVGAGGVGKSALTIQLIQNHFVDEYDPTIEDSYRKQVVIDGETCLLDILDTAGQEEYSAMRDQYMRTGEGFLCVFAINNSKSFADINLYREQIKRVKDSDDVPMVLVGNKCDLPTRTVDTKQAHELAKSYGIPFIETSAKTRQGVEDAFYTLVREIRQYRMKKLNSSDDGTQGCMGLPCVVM

CCC[C@H]1C(=O)N[C@@H]([C@@H](C)CC)C(=O)N(C)CC(=O)N(C)[C@H]2C/C=C\CCN(C2=O)[C@@H](Cc2ccc(C(F)(F)F)cc2)C(=O)N(C)CC(=O)N[C@@H](CCc2ccc(Cl)c(Cl)c2)C(=O)N2CC[C@H]2C(=O)NC2(CC(C)(C)C2)C(=O)N(C)[C@@H](C(CC)CC)C(=O)N(C)[C@H](C(=O)N(C)C)CC(=O)N1C [PP2921]
HRAS/KRAS (ratio of KD value with respect to GDP-bound HRAS wild-type protein to KD value with respect to KRAS) [1]: A (a compound having 10 or more and less than 20 is denoted as A)
NRAS/KRAS (ratio of KD value with respect to GDP-bound NRAS wild-type protein to KD value with respect to KRAS) [2]: AA (a compound having 20 or more is denoted as AA)

CCCOC[C@H]1C(=O)N[C@@H]([C@@H](C)CC)C(=O)N(C)CC(=O)N(C)[C@H]2C/C=C\CCN(C2=O)[C@@H](Cc2ccc(C)cc2)C(=O)N(C)CC(=O)N[C@@H](CCc2ccc(C(F)(F)F)c(OC)c2)C(=O)N2C[C@@H](C)C[C@H]2C(=O)NC2(CC(C)(C)C2)C(=O)N(C)[C@@H](C2CCCC2)C(=O)N(C)[C@H](C(=O)N(C)CC)CC(=O)N1C [PP2461]
HRAS/KRAS (ratio of KD value with respect to HRAS to KD value with respect to KRAS) ([1]; SPR, GDP-bound HRAS wild-type vs GDP-bound KRAS wild-type): A (a compound having 10 or more and less than 20 is denoted as A)
NRAS/KRAS (ratio of KD value with respect to NRAS to KD value with respect to KRAS) ([2]; SPR, GDP-bound NRAS wild-type vs GDP-bound KRAS wild-type): A (a compound having 10 or more and less than 20 is denoted as A)

CC[C@H](C)[C@@H]1NC(=O)[C@H](CC(C)C)N(C)C(=O)C[C@@H](C(=O)N2CCOCC2)N(C)C(=O)[C@H](C2CCCC2)N(C)C(=O)C2(CCCC2)NC(=O)[C@@H]2CCCN2C(=O)[C@H](CCc2ccc(C(F)(F)F)c(Cl)c2)NC(=O)CN(C)C(=O)[C@H](Cc2ccc(C(F)(F)F)cc2)N(CCOC)C(=O)[C@@H]2CCN2C(=O)[C@H](C)N(C)C1=O [PP0118] ([NMeL]I[NMeA][Aze][X32][Sar][hPhe(3-Cl-4-CF3)]P[Ac5c][NMeGly(cPent)][NMeD]-Morpholide; lactam N-11)
HRAS/KRAS (ratio of KD for GDP-bound HRAS wild-type to KD for KRAS) ([1]; SPR): C (A compound having a KD ratio of 0.1 or more and less than 3 is denoted as C)
NRAS/KRAS (ratio of KD for GDP-bound NRAS wild-type to KD for KRAS) ([2]; SPR): C (A compound having a KD ratio of 0.1 or more and less than 3 is denoted as C)

CCO[C@@H]1C[C@H]2C(=O)NC3(CCC3)C(=O)N(C)[C@@H](C3CCCC3)C(=O)N(C)[C@H](C(=O)N(C)CC)CC(=O)N(C)[C@H]3CCC/C=C/c4ccc(cc4)C[C@@H](C(=O)N(C)CC(=O)N[C@@H](CCc4ccc(C(F)(F)F)c(OC)c4)C(=O)N2C1)N1CC/C=C\C[C@@H](C1=O)N(C)C(=O)CN(C)C(=O)[C@H]([C@@H](C)CC)NC3=O [PP1834]
HRAS/KRAS (ratio of KD value for HRAS to KD value for KRAS) [1, 3]: B (a compound having 3 or more and less than 10 is denoted as B)
NRAS/KRAS (ratio of KD value for NRAS to KD value for KRAS) [2, 4]: A (a compound having 10 or more and less than 20 is denoted as A)

CCC[C@H]1C(=O)N[C@@H]([C@@H](C)CC)C(=O)N(C2CC2)CC(=O)N(C)[C@H]2C/C=C\CCN(C2=O)[C@@H](Cc2ccc(C(F)(F)F)cc2)C(=O)N(C)CC(=O)N[C@@H](CCc2ccc(Cl)c(Cl)c2)C(=O)N2C[C@H](OCC)C[C@H]2C(=O)NC2(CC(C)(C)C2)C(=O)N(C)[C@@H](CC(C)(C)C)C(=O)N(C)[C@H](C(=O)N(C)C)CC(=O)N1C [PP2749]
HRAS/KRAS (ratio of KD value with respect to GDP-bound HRAS wild-type protein to KD value with respect to KRAS) [1]: A (a compound having 10 or more and less than 20 is denoted as A)
NRAS/KRAS (ratio of KD value with respect to GDP-bound NRAS wild-type protein to KD value with respect to KRAS) [2]: AA (a compound having 20 or more is denoted as AA)

CC[C@H](C)[C@@H]1NC(=O)[C@H](CC(C)C)N(C)C(=O)C[C@@H](C(=O)N2CCOCC2)N(C)C(=O)[C@H](C2CCCC2)N(C)C(=O)C2(CCCC2)NC(=O)[C@@H]2CCCN2C(=O)[C@H](CCc2ccc(C(F)(F)F)c(Cl)c2)NC(=O)CN(C)C(=O)[C@H](Cc2ccc(C)cc2)N(CC2CCCC2)C(=O)CN(C)C(=O)CN(C)C1=O [PP0096] ([NMeL]I[Sar][Sar][X29][Sar][hPhe(3-Cl-4-CF3)]P[Ac5c][NMeGly(cPent)][NMeD]-Morpholide; lactam N-11)
HRAS/KRAS (ratio of KD for GDP-bound HRAS wild-type to KD for KRAS) ([1]; SPR): C (A compound having a KD ratio of 0.1 or more and less than 3 is denoted as C)
NRAS/KRAS (ratio of KD for GDP-bound NRAS wild-type to KD for KRAS) ([2]; SPR): C (A compound having a KD ratio of 0.1 or more and less than 3 is denoted as C)

CCCN1C(=O)CN(C)C(=O)CN(C)C(=O)[C@H]([C@@H](C)CC)NC(=O)[C@H](CC(C)C)N(C)C(=O)C[C@@H](C(=O)N2CCOCC2)N(C)C(=O)[C@H](C2CCCC2)N(C)C(=O)C2(CCC2)NC(=O)[C@@H]2CCCN2C(=O)[C@H](CCc2ccc(C(F)(F)F)c(Cl)c2)NC(=O)CN(C)C(=O)[C@@H]1COCCC(C)C [PP1817] ([NMeL]I[Sar][Sar][X4][Sar][hPhe(3-Cl-4-CF3)]P[Ac4c][NMeGly(cPent)][NMeD]-Morpholide; lactam N-11)
HRAS/KRAS (ratio of KD value for HRAS to KD value for KRAS) [1, 3]: C (A compound having a KD ratio of 0.1 or more and less than 3 is denoted as C)
NRAS/KRAS (ratio of KD value for NRAS to KD value for KRAS) [2, 4]: C (A compound having a KD ratio of 0.1 or more and less than 3 is denoted as C)

From patent US20250230193A1, “CYCLIC COMPOUND HAVING SELECTIVE KRAS INHIBITORY EFFECT ON HRAS AND NRAS” (CHUGAI SEIYAKU KABUSHIKI KAISHA, priority 2022, published 2025)
